Source: patent US20140323420A1, “REDUCING TRANSMISSION OF SEXUALLY TRANSMITTED INFECTIONS” (University of Rochester, priority 2011, published 2014)
Entries after “also recorded” stand apart in the source; their conditions may differ. Where two headings read alike, the source gives them in different places. One block for each compound: values may come before it.

How the values were obtained:
HIV-1IIIB [1] = test: Semen-mediated enhancement of HIV-1 IIIB infection, CEM cells; format: cell-based; details: HIV-1 IIIB preincubated with 50% semen, diluted 15 fold onto CEM cells
Method: (§1) After 10 minutes, the stocks were diluted 15 fold and incubated with CEM 5.25 cells.

[2] = system: cervical epithelial cell lines SiHa, A2En, 3EC1; format: cell-based, human
From the text: For a compound to be a legitimate HIV-1 microbicide candidate, it must not have toxic or inflammatory effects on the cervical […]. Loss of this protective layer leads to an increased ability for HIV-1 to cross the mucosal barrier, and inflammatory effects drive recruitment of HIV-1 target cells, further decreasing the natural barriers against successful transmission of HIV. […] To do this, the following cell lines were used: 1) SiHa cells, a cervical carcinoma cell line; 2) A2En cells, a primary cell-derived line from the endocervical […]; and 3) 3EC1 cells, a primary cell-derived line from the ectocervical […]. […] Viability was assessed at 24 h by using the resazurin cytotoxicity assay. Resazurin cytotoxicity data were confirmed by trypan blue counts of viable cells.

HIV-1 IIIB = test: Virus binding assay (p24), HIV-1 IIIB virions; format: cell-based; details: Jurkat cells; for Inhibition of SEVI-enhanced binding of HIV-1 virions to the cell surface (p24 ELISA): with SEVI, 90 min
Method: as §1

[3] = system: cervical epithelial cell lines SiHa, A2En, 3EC1; format: cell-based, human; remark: listed apart in the source
Method: Cytokine and chemokine production was assessed at 12 h by ELISA (R&D systems). Cells were also treated with 0.1% nonoxynol-9 as a positive control for cytotoxicity and with 0.1 μg/ml FSL1, a synthetic diacylated lipoprotein derived from Mycoplasma salivarium (InvivoGen, San Diego, Calif.), as a positive control for chemokine production.
Nonoxynol-9 (non-9), a spermicide, was used as a positive control. […] Cell culture supernatants were then assessed for the presence of the inflammatory cytokines and chemokines Mip-3α (FIG. 5B), IL-8 (FIG. 16C), IL-1β, and TNF-α.

SEVI fibrils [4] = target: T1, SEVI fibrils (Homo sapiens, UniProt P15309); test: Fluorescence polarization: displacement of FITC-heparin from SEVI fibrils; format: binding; details: SEVI + 16 μg/ml FITC-heparin, 1 h room temperature
T1 construct: PAP248-286 peptide was synthesized by New England Peptide; purchased New England Peptide (Gardner, Mass.); host or cells: chemical synthesis
T1 sequence (P15309 248-286 limits assumed): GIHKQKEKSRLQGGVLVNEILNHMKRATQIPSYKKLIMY
Method: Samples were incubated 1 h at room temperature and read on a PerkinElmer Life Sciences Envision 2012 multilabel reader (PerkinElmer, Waltham, Mass.) at an excitation λ=480 nm and emission λ=535 nm. The horizontal and vertical polarized fluorescence intensities were recorded, and the calculated polarization was determined in millipolarization units.
Samples were incubated for 1 hour at room temperature and polarized fluorescence was measured.

HIV-1IIIB [5] = test: SEVI-mediated enhancement of HIV-1 IIIB infection, CEM-M7 (CEM 5.25) cells, luciferase; format: cell-based; details: for Inhibition of SEVI-mediated enhancement of HIV-1 infection (luciferase): CEM cells, with SEVI fibrils, increasing concentrations
Method: After 2 h, the medium […] were replaced.

A2En cells = test: HIV-1 BaL + SEVI chemokine release from A2En cells (ELISA); format: cell-based, human; details: HIV-1BAL virions + SEVI
Method: (§2) Supernatant was collected at 6 and 24 h, and the production of the chemokines IL-8 and Mip-3α was measured by ELISA (R&D Systems). […] After 6 h, supernatants were collected, and the production of the chemokines IL-8 and Mip-3α was measured by ELISA (R&D systems, Minneapolis, Minn.).

HIV-1IIIB [6] = details: previously reported value for BTA-EG6; cited from earlier work
[7] = target: T2, aggregated Alzheimer disease-related Aβ(1-42) peptides (Homo sapiens, UniProt P05067); test: Fluorescence binding assay of BTA-EG6 to aggregated Aβ(1-42) peptides; details: same fluorescence binding assay
T2 construct: aggregated Alzheimer disease-related Aβ(1-42) peptides
T2 sequence (P05067 672-713 limits assumed): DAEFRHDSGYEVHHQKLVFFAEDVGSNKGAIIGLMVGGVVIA
From the text: Error bars represent standard deviations from the mean.

HIV-1BaL = test: SEVI-mediated enhancement of HIV-1 BaL infection of PBMCs, p24; format: cell-based
Method: Cells were washed at 3 h, and infection was analyzed at day 4 using the HIV-1 p24 antigen capture assay (Advanced Bioscience Laboratory).

SiHa cells = test: Semen-mediated chemokine release from SiHa cells (ELISA); format: cell-based; details: pooled human semen, 33 μg/ml BTA-EG6, 6 h
Method: as §2
After 6 h, supernatants were collected and analyzed for production of IL-8 or MIP-3α.

HIV-1ADA [8] = test: Semen-mediated enhancement of HIV-1 ADA infection, CEM-M7 cells; format: cell-based
Method: After 15 min, the semen and virus mixture was diluted 1:15 into 5×10^4 CEM-M7 cells/well in a 96-well plate. Cells were washed after 1 h, and infection was assayed at 48 h as above.
As human semen has been reported to be toxic to cultured cells, a protocol that minimized this toxicity was used. Pooled human semen was added to HIV-1IIIB virus in a 1:1 dilution. After 15 min, this solution was added to cells at a 1:15 dilution for a final concentration of 3.3%.

SEVI fibrils [9] = target: T1, SEVI fibrils; test: ThT fluorescence stability of preformed SEVI fibrils; details: 3 h incubation
From the text: After that time, fibrillar structures were examined by ThT fluorescence. ThT changes in fluorescence intensity when intercalated into the β-sheet structure common to amyloid fibrils; therefore, ThT fluorescence serves as a surrogate measure for fibrillar structure of SEVI and for the stability of SEVI fibrils.

HIV-1ADA [10] = test: Virus binding assay (p24), HIV-1 ADA virions; format: cell-based; details: A2En endocervical cells, with SEVI
Method: After 90 min, cells were washed to remove any unbound virus, and bound virions were detected using an HIV-1 p24 antigen capture assay (Advanced Bioscience Laboratory).
Surface-bound virions were then measured by p24 ELISA after washing off unbound virus. […] Additionally, this experiment was performed using A2En cells, a primary cell-derived endocervical cell line.

SEVI fibrils [11] = target: T1, SEVI fibrils; test: Flow cytometry: binding of SEVI-biotin fibrils to the Jurkat cell surface; format: cell-based; details: 1 h; for MFI (mean fluorescent intensity): Jurkat cells + SEVI-biotin
Method: Cells were incubated for 1 h at 37° C., washed, and stained for 1 h with a covalent conjugate of streptavidin and fluorescein isothiocyanate (SA-FITC). Cells were washed and run on an Accuri C6 Flow Cytometer (Accuri Cytometers, Ann Arbor, Mich.). Data were analyzed using FlowJo (TreeStar Inc, Ashland, Oreg.).
After that time, fibrillar structures were examined by ThT fluorescence. ThT changes in fluorescence intensity when intercalated into the β-sheet structure common to amyloid fibrils; therefore, ThT fluorescence serves as a surrogate measure for fibrillar structure of SEVI and for the stability of SEVI fibrils. […] Binding of the fibrils to the cell surface was detected using SA-FITC. […] Surface-bound fibrils were detected with SA-FITC and measured by flow cytometry. Results are shown as percentage of cells with bound fibrils (SA-FITC+) as well as mean fluorescent intensity (MFI).

HIV-1ADA [12] = test: SEVI-mediated enhancement of HIV-1 ADA infection, CEM-M7 cells, luciferase; format: cell-based
Method: Treated virions were then added to 5×10^4 CEM-M7 cells/well in 96-well flat-bottomed tissue culture plates. After 2 h, the medium axis were replaced. Infection was assayed after 48 h by quantifying luciferase expression using the Promega Dual-Luciferase assay and a Beckman Coulter DTX880 plate reader.

SEVI fibrils [13] = target: T1, SEVI fibrils; test: Example 4: centrifugation fluorescence binding assay of 1-5 to SEVI fibrils; details: Table 3, 5% DMSO/PBS
From the text: Each experiment was repeated at least 3 times. Error bars represent standard deviations from the mean.
When the Kd values of compounds 1-5 to SEVI fibrils was examined, a similar trend for improved binding of the oligomeric BTA compounds was observed (Table 3). The greatest improvement in binding as a function of increasing valence number in the oligomer was observed when comparing the monomer to dimer and the tetramer to pentamer.

Aβ(1-42) fibrils = target: T3, Aβ(1-42) fibrils (Homo sapiens, UniProt P05067); test: Example 4: centrifugation fluorescence binding assay of 1-5 to Aβ(1-42) fibrils
T3 construct: Aβ(1-42) peptide was purchased from GL Biochem (Shanghai, China) Ltd; purchased GL Biochem (Shanghai, China) Ltd; host or cells: synthetic peptide; fibrils grown in PBS at 37 °C for 24 h
T3 sequence (P05067 672-713 limits assumed): as above
Method: The binding of BTA monomer oligomer to amyloid fibrils was measured according to the centrifugation assay described by Levine for BTA-1 to Aβ fibrils (Levine et al., Amyloid 12:5-14 (2005)). […] These incubations were performed in duplicate runs and allowed to equilibrate for 12 hours at room temperature. After equilibration, each solution was centrifuged at 16,000 g for 20 minutes at 4° C. The supernatants were separated from the pelleted fibrils, and 220 μL of fresh 5% DMSO/PBS was added to re-suspend the pellets. 100 μl aliquots of each re-suspended pellet was pipetted into a cuvette (ultramicrocuvette, 10-mm light path, Hellma®, Müllheim, Germany), and the fluorescence of the bound molecule was determined at 355 nm excitation and 420 nm emission using a spectrofluorometer (Photon Technology International, Inc., Birmingham, N.J.). Each experiment was repeated at least 3 times. Error bars represent standard deviations from the mean. […] The data were processed using Origin 7.0 (MicroCal Software, Inc., Northampton, Mass.).

SEVI fibrils [14] = target: T1, SEVI fibrils; test: Example 3: fluorescence assay, Kd of monomer and oligomers 1-5 to SEVI fibrils; format: binding; details: Example 3, Table 2, estimated
Method: To test whether binding affinity/avidity is reduced in oligomeric forms, the binding of monomeric and oligomeric forms was assayed to determine the affinity/avidity constants (Kd) for the binding of monomer and oligomers 1-5 to amyloid fibrils formed from SEVI peptides.

HIV-IIIB = test: Screening hits: SEVI-mediated enhancement of HIV-IIIB infection, CEM-M7 cells; format: cell-based, HIV-1; details: 50 μM, 15 μg/mL SEVI, 48 hours
Method: Each of the selected compound shown below was incubated at 50 μM with 15 μg/mL of SEVI for 10 minutes. HIV-IIIB was then added and incubated for an additional 10 minutes prior to being added to CEM-M7 cells. After two hours the inoculum was removed and the cells washed with PBS. The cells were incubated for an additional 48 hours and then HIV infection was assessed by luciferase activity. Luciferase activity is graphed for each of the selected compounds in FIG. 29.
A high throughput assay was established to identify SEVI-binding compounds.

[15] = Table 3, 5% DMSO/PBS, read-out: Kd (nM) to Aβ(1-42) fibrils
[16] = heparin (100 μg/ml) positive control

Compound: Cc1ccc2nc(-c3ccc(NCCOCCOCCOCCO)cc3)sc2c1 [BTA-EG4]
Inhibition of semen-mediated enhancement of HIV infection (luciferase) (HIV-1IIIB [1]): capable of inhibiting semen mediated enhancement of HIV infection
Cell viability (Alamar Blue) [2]: did not affect the cell viability
Inhibition of SEVI-enhanced binding of HIV-1 virions to the cell surface (p24 ELISA) (HIV-1 IIIB): decrease in HIV-1 binding to the cells
Cytokine production (IL-1b, MIP-3a, TNF-a) by ELISA [3]: do not induce cytokine production
Binding to SEVI fibrils, displacement of FITC-heparin (decrease of polarization) (SEVI fibrils [4]): capable of binding SEVI
Inhibition of SEVI-mediated enhancement of HIV-1 infection (luciferase) (HIV-1IIIB [5]): decreasing levels of luciferase activity

Compound: Cc1ccc2nc(-c3ccc(NCCOCCOCCOCCOCCOCCO)cc3)sc2c1 [BTA-EG6]
Inhibition of semen-mediated enhancement of HIV infection (luciferase) (HIV-1IIIB [1]): capable of inhibiting semen mediated enhancement of HIV infection; also recorded: efficiently inhibited the semen mediated enhancement of HIV-1 infection
Inhibition of SEVI-increased IL-8 release (A2En cells): able to inhibit this release
Concentration required to completely neutralize the effects of SEVI on HIV-1 infection (HIV-1IIIB [6]): 44 µM
Kd [7]: 111 ± 32 nM
Inhibition of SEVI-mediated enhancement of HIV-1 infection (p24) (HIV-1BaL; HIV-1BAL, 15 μg/ml SEVI): able to inhibit SEVI-mediated enhancement of HIV-1 infection in PBMCs
Effect on infectivity of HIV alone (HIV-1BaL; HIV-1BaL, absence of SEVI): no effect on the infectivity of HIV-1BaL
Cell viability (Alamar Blue) [2]: did not affect the cell viability
Cell viability (resazurin cytotoxicity assay) [2]: did not have any effects on cell viability
Effect on binding of HIV virions to the cell surface (HIV-1 IIIB; absence of SEVI): no effect on the binding of HIV virions to the cell surface
Inhibition of SEVI-enhanced binding of HIV-1 virions to the cell surface (p24 ELISA) (HIV-1 IIIB): decrease in HIV-1 binding to the cells
Inhibition of SEVI-enhanced binding of HIV-1 virions to the cell surface (p24 ELISA) (HIV-1 IIIB; listed as BTAEG6): efficiently abrogated
Cytokine production (IL-1b, MIP-3a, TNF-a) by ELISA [3]: do not induce cytokine production
Effect on semen-stimulated IL-8 and MIP-3α production (SiHa cells): no inhibitory effect on semen-stimulated chemokine production
Inhibition of semen-mediated enhancement of HIV infection (luciferase) (HIV-1ADA [8]): this effect extended to infection with an R5 virus
Effect on stability of preformed SEVI fibrils (ThT fluorescence) (SEVI fibrils [9]): no effect on fibrillar stability
Inhibition of SEVI-enhanced binding of HIV-1 virions to the cell surface (p24 ELISA) (HIV-1ADA [10]): this effect was inhibited
SA-FITC+ (%), percentage of cells with bound fibrils (SEVI fibrils [11]; BTA-EG6 high (27 μg/ml)): 21.2%
SA-FITC+ (%), percentage of cells with bound fibrils (SEVI fibrils [11]; BTA-EG6 low (5.5 μg/ml)): 36.6%
MFI (mean fluorescent intensity) (SEVI fibrils [11]; BTA-EG6 high (27 μg/ml)): 38.7
MFI (mean fluorescent intensity) (SEVI fibrils [11]; BTA-EG6 low (5.5 μg/ml)): 95.3
Binding to SEVI fibrils, displacement of FITC-heparin (decrease of polarization) (SEVI fibrils [4]): capable of binding SEVI; also recorded: able to displace fluorescent heparin from the SEVI fibrils in a dose-dependent fashion
Inhibition of SEVI-mediated enhancement of HIV-1 infection (luciferase) (HIV-1IIIB [5]): decreasing levels of luciferase activity; also recorded: reducing infectivity nearly back to baseline levels
Effect on infectivity of HIV alone (HIV-1IIIB [5]; CEM-M7, absence of SEVI): no effect on the infectivity of HIV virus alone
Inhibition of SEVI-mediated enhancement of HIV-1 infection (luciferase) (HIV-1ADA [12]; CEM-M7, 15 μg/ml SEVI): significant dose-dependent inhibition
Effect on infectivity of HIV alone (HIV-1ADA [12]; CEM-M7, absence of SEVI): No effect on the infectivity of HIV-1ADA was observed

Kd (SEVI fibrils [13]): 236 ± 90 nM
Kd (Aβ(1-42) fibrils; [15]): 235 ± 75 nM
Kd (SEVI fibrils [14]): 107 ± 16 nM
Compound: CCNC(=O)CCOCCOCCOCCOCCNC(=O)CCNc1ccc(-c2nc3ccc(C)cc3s2)cc1 [Compound 1, BTA Monomer]

Compound: Cc1ccc2nc(-c3ccc(NCCC(=O)NCCOCCOCCOCCOCCC(=O)NCCNC(=O)CCOCCOCCOCCOCCNC(=O)CCNc4ccc(-c5nc6ccc(C)cc6s5)cc4)cc3)sc2c1 [Compound 2, BTA Dimer]
Kd (SEVI fibrils [13]): 69 ± 1 nM
Fold lower Kd than monomer 1, Aβ(1-42) fibrils (Aβ(1-42) fibrils): 8 fold
Kd (Aβ(1-42) fibrils): 29 ± 4 nM
Kd (SEVI fibrils [14]): 75 ± 10 nM

Kd (SEVI fibrils [13]): 40 ± 6 nM
Kd (Aβ(1-42) fibrils; [15]): 26 ± 6 nM
Kd (SEVI fibrils [14]): 40 ± 6 nM
Compound: Cc1ccc2nc(-c3ccc(NCCC(=O)NCCOCCOCCOCCOCCC(=O)NCCN(CCNC(=O)CCOCCOCCOCCOCCNC(=O)CCNc4ccc(-c5nc6ccc(C)cc6s5)cc4)CCNC(=O)CCOCCOCCOCCOCCNC(=O)CCNc4ccc(-c5nc6ccc(C)cc6s5)cc4)cc3)sc2c1 [Compound 3, BTA Trimer]

Kd (SEVI fibrils [13]): 59 ± 6 nM
Kd (Aβ(1-42) fibrils; [15]): 20 ± 5 nM
Kd (SEVI fibrils [14]): 56 ± 6 nM
Compound: CCNC(=O)C(CCCCNC(=O)CCOCCOCCOCCOCCNC(=O)CCNc1ccc(-c2nc3ccc(C)cc3s2)cc1)NC(=O)C(CCCCNC(=O)CCOCCOCCOCCOCCNC(=O)CCNc1ccc(-c2nc3ccc(C)cc3s2)cc1)NC(=O)C(CCCCNC(=O)CCOCCOCCOCCOCCNC(=O)CCNc1ccc(-c2nc3ccc(C)cc3s2)cc1)NC(=O)CCOCCOCCOCCOCCNC(=O)CCNc1ccc(-c2nc3ccc(C)cc3s2)cc1 (stereo not shown) [Compound 4, BTA Tetramer]

Compound: COc1ccc(Cl)cc1-c1ccc(-c2c(C#N)c(N)n3c(nc4ccccc43)c2C#N)o1 [Compound 8E2]
Inhibition of SEVI-mediated enhancement of HIV infection (luciferase) (HIV-IIIB): inhibited SEVI-mediated enhancement of HIV infection

Compound: COc1ccc2cc3[n+](cc2c1OC)CCc1cc2c(cc1-3)OCO2 [Compound 11A5]
Inhibition of SEVI-mediated enhancement of HIV infection (luciferase) (HIV-IIIB): inhibited SEVI-mediated enhancement of HIV infection

SA-FITC+ (%), percentage of cells with bound fibrils (SEVI fibrils [11]; [16]): 31.7%
MFI (mean fluorescent intensity) (SEVI fibrils [11]; [16]): 376
Binding to SEVI fibrils, displacement of FITC-heparin (decrease of polarization) (SEVI fibrils [4]): the polarization decreased
Compound: heparin [reference compound]
